Values of other authors in publication PMC12737022, “Evaluations of Sex Differences in Dosimetry in Rats Following Perfluorohexanesulfonamide (PFHxSA) Oral Exposure” (Toxics, 2025).

Key:
[1] = set-up: method as in PMID 31078680; conditions: cited from earlier work; for Liver partitioning values: male rats
[2] = set-up: method as in PMID 40710967; conditions: SD rats following PFHxSA administration; cited from earlier work
[3] = set-up: method as in PMID 37756184; conditions: bariatric surgery patients; cited from earlier work

Row | SMILES | Share of the PFAS detected following dosing [2] | Liver partitioning values [1] | also measured
1 | O=C(O)C(F)(F)C(F)(F)C(F)(F)F [PFBA] |  |  | Liver partitioning summary values ([1]; across both sexes): 0.16–0.44
2 | O=C(O)C1OC(NS(=O)(=O)C(F)(F)C(F)(F)C(F)(F)C(F)(F)C(F)(F)C(F)(F)F)C(O)C(O)C1O (stereo not drawn) [PFHxSA-glucuronide] | less than 3% |  | 
3 | O=C(O)C(F)(F)C(F)(F)C(F)(F)C(F)(F)C(F)(F)C(F)(F)C(F)(F)F [PFOA, perfluorooctanoic acid, reference compound] |  | 1.5 to 10.9 | Human liver/plasma partitioning Kp [3]: 0.26
4 | O=S(=O)(O)C(F)(F)C(F)(F)C(F)(F)C(F)(F)C(F)(F)C(F)(F)C(F)(F)C(F)(F)F [PFOS, perflurooctanesulfonic acid] |  | 1.5 to 10.9 | 
5 | O=S(O)C(F)(F)C(F)(F)C(F)(F)C(F)(F)C(F)(F)C(F)(F)F [perfluorohexanesulfinic acid] | less than 3% |  | 
